Test results published in publication PMC11284088, “Synthesis and biochemical characterization of naphthoquinone derivatives targeting bacterial histidine kinases” (The Journal of Antibiotics, 2024).
pIC50: −log10 of the molar value. “Also recorded” adds a separate entry of the source. Read-outs that look alike come from different tables or passages of the source.

How the values were obtained:
EvgS (559–1197) D1009A = molecular target: T1, EvgS (559–1197) D1009A (Escherichia coli, UniProt P30855, D1009A); test: Inhibition of EvgS autophosphorylation; type: biochemical, Escherichia coli K12; conditions: EvgS (559–1197) D1009A; 1 µM HK, 40 µM ATP, 30 min at 25 °C; read-out: IC50
T1 construct: EvgS (559–1197) D1009A; His6 (C); made in house; host or cells: E. coli BL21(DE3)
T1 sequence (P30855 559-1197 D1009A): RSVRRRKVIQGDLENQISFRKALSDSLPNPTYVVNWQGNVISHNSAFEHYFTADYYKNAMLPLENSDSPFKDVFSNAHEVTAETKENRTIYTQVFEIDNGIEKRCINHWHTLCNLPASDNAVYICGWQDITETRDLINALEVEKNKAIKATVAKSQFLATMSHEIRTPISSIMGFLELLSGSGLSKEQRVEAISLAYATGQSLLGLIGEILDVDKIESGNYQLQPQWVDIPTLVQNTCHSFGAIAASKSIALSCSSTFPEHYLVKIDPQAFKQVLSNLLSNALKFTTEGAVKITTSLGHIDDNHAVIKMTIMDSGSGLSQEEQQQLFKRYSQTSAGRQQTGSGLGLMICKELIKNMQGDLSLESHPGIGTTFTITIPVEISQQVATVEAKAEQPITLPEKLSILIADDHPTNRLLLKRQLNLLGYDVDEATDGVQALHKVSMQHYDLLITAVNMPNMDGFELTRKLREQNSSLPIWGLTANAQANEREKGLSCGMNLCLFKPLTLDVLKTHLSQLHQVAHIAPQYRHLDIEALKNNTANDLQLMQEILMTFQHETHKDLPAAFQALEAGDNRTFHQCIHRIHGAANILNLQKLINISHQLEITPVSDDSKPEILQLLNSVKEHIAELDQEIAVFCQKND
Experimental: (§1) Autophosphorylation of WalK was conducted at 0.5 or 1 µM in a reaction mixture comprising 50 mM Tris-HCl (pH 8.5), 100 mM KCl, 5 mM MgCl2, 100 mM NH4Cl, 5% DMSO, and 40 µM ATP. The total reaction volume was 40 µl, and the incubation lasted for 30 min at 25 °C. To terminate the reaction, 40 µl of 2 × SDS-PAGE sample buffer was added, followed by a 10-min incubation at 37 °C. Subsequently, SDS-PAGE (10% acrylamide) was performed, and the samples were subjected to Western blotting using a PVDF membrane (Bio-Rad 1620177). The primary antibody used was anti-N3-phosphohistidine antibody (clone SC56-2) (EDM Millipore Corp), and the secondary antibody was goat anti-rabbit IgG-HRP (Abcam). A 2% bovine serum albumin (Sigma-Aldrich) solution served as the blocking reagent. Signals originating from phosphorylated HKs were detected using the HRP substrate (Immobilon Western Chemiluminescent HRP substrate, Millipore) and the Multi Imager II Multi Box (Bio Tools). Signal intensities were quantified with Image Analysis Software CS Analyzer 4 (ATTO). IC50 values (50% inhibitory concentrations) were determined using Prism 7 software (GraphPad).
(§2) In the assessment of naphthoquinone derivatives, the initial screening for inhibitory activity against WalK autophosphorylation was conducted at 50 or 100 µg ml^−1. Compounds displaying inhibitory activity were further examined to ascertain their IC50 values against WalK. For the chosen compounds, inhibition against EvgS, EnvZ, PhoQ, and CpxA HKs was also assessed. These reactions involved the use of 1 µM HK, 40 µM ATP, and a 30 min incubation at 25 °C.

WalK = molecular target: T2, WalK (Bacillus subtilis, UniProt Q45614); test: Inhibition of WalK autophosphorylation; type: biochemical; parameters: key to WalK: WalK + inhibitory effect against WalK; conditions: for pIC50: against WalK from B. subtilis, autophosphorylation, N.I. = no inhibition, read-out: IC50; for inhibitory activity against WalK: in words; for WalK: summary class
T2 construct: His6 (N); made in house; host or cells: E. coli BL21(DE3)
T2 sequence (Q45614 207-611): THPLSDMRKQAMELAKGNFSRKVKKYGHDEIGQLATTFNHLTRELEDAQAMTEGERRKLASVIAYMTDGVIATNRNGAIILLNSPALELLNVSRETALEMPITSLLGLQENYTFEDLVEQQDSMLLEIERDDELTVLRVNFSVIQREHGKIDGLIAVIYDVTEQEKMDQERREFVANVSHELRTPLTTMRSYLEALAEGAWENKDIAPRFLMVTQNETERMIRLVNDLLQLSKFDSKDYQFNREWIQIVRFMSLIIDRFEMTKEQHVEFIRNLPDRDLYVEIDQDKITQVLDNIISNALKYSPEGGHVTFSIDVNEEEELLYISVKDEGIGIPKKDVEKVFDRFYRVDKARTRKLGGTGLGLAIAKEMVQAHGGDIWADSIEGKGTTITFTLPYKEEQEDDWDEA
Experimental: as §1, §2

CpxA = molecular target: T3, CpxA (Escherichia coli, UniProt P0AE82); test: Inhibition of CpxA autophosphorylation; type: biochemical, Escherichia coli K12; conditions: CpxA; 1 µM HK, 40 µM ATP; read-out: IC50
T3 construct: cytoplasmic regions of PhoQ (261-486) and CpxA (188-457); His6 (C); made in house; host or cells: E. coli BL21(DE3)
T3 sequence (P0AE82 188-457): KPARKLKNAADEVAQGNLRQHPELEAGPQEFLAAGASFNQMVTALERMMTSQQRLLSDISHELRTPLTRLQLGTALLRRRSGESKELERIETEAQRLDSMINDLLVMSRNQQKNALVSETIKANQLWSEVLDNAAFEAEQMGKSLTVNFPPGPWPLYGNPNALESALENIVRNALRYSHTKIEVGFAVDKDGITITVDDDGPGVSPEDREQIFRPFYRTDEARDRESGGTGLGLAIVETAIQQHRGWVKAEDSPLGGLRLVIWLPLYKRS
Experimental: as §1, with “The” for “Autophosphorylation of WalK was conducted at 0.5 or 1 µM in a reaction mixture comprising 50 mM Tris-HCl (pH 8.5), 100 mM KCl, 5 mM MgCl2, 100 mM NH4Cl, 5% DMSO, and 40 µM ATP. The”
as §2, with “These reactions involved the use of 1 µM HK, 40 µM ATP, and a 30 min incubation at 25 °C.” left out

PhoQ = molecular target: T4, PhoQ (Escherichia coli, UniProt P23837); test: Inhibition of PhoQ autophosphorylation; type: biochemical, Escherichia coli K12; conditions: PhoQ; 1 µM HK, 40 µM ATP, buffer pH 7.5; read-out: IC50
T4 construct: cytoplasmic regions of PhoQ (261-486) and CpxA (188-457); His6 (C); made in house; host or cells: E. coli BL21(DE3)
T4 sequence (P23837 261-486): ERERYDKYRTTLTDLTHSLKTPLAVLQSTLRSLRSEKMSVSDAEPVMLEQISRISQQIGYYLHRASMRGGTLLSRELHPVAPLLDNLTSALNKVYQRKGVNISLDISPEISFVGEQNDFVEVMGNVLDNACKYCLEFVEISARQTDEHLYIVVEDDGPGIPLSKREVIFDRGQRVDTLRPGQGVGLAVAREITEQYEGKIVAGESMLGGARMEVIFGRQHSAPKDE
Experimental: as §1, §2

[1] = system: HKs (EvgS, EnvZ, PhoQ, and CpxA); test: Inhibition of class I HKs, summary over several HKs; type: biochemical, Escherichia coli K12; parameters: key to HKs: HKs + inhibitory effect against HKs (EvgS, EnvZ, PhoQ, and CpxA); conditions: for inhibition of EvgS, EnvZ, PhoQ, and CpxA: in words; for HKs: summary class, EvgS, EnvZ, PhoQ, and CpxA
Experimental: as §1, §2

B. subtilis 168 strain = test: MIC, standard microtiter broth dilution; type: cell-based, Bacillus subtilis; parameters: key to MIC: MIC + antibacterial activity against Bacillus subtilis 168
Experimental: The minimum inhibitory concentrations (MICs) were determined using the standard microtiter broth dilution method, as recommended by the guidelines of the Clinical Laboratory Standards Institute.

iseA (formerly yoeB) = test: RT-qPCR of iseA expression in B. subtilis cells; type: cell-based, B. subtilis 168; parameters: key to RT-qPCR: RT-qPCR + iseA gene expression was induced in B. subtilis 168; − no effect; conditions: for expression of iseA: exponentially growing cells, subMIC or MIC levels, 5 min, relative to DMSO control; for RT-qPCR: summary class, iseA gene expression in B. subtilis 168
Experimental: In brief, the cells were aerated and grown to an optical density at 660 nm of 0.3–0.4 at 37 °C. After the addition of DMSO or naphthoquinone derivatives, the cultures were further incubated for 5 min, cooled on ice for 1 min, and then harvested by centrifugation (2300 × g, 10 min, 4 °C). The cells were resuspended in 800 µl of RNA Lysis Buffer (SV Total RNA Isolation System, Z3100, Promega), transferred to a screw-capped tube containing 400 mg of glass beads (GB-01, TOMY), and disrupted using MicroSmash (MS-100, TOMY Medico) at 3000 rpm, 60 s ON/OFF for 6 cycles. RNA was then purified from 175 µl of the supernatant using the SV Total RNA Isolation System, followed by DNase I treatment (Turbo DNA-free^TM Kit, AM1907, Invitrogen) to remove any residual genomic DNA contamination. […] The expression levels of the genes were normalized using the 16S rRNA gene as an internal standard. Each assay was performed at least three times. Statistical analyses were conducted using Tukey’s multiple comparison test (GraphPad Prism 7).

[2] = B. subtilis 168 strain grown in LB broth at 37 °C for 18 h
[3] = summary class, Bacillus subtilis 168

For `O=C1C(Cl)=C(Nc2ccc(Cl)c(O)c2)C(=O)c2c(O)ccc(O)c21` [2h, 2-chloro-3-((4-chloro-3-hydroxyphenyl)amino)-5,8-dihydroxynaphthalene-1,4-dione], the pIC50 (EvgS (559–1197) D1009A) was 4.59, the pIC50 (WalK; listed as C00015) was 4.90 and the “inhibitory activity against WalK” value (WalK) was “comparable to waldiomycin”. The WalK (WalK) was “+”, the pIC50 (CpxA) was 4.71 and the pIC50 (PhoQ) was 4.37. The “inhibition of EvgS, EnvZ, PhoQ, and CpxA” value [1] was “inhibited all four of these HKs”, the HKs [1] was “+” and the MIC (B. subtilis 168 strain; [2]) was 8 µg/mL. For the same molecule, the MIC (B. subtilis 168 strain; B. subtilis 168 strain grown in LB broth at 37 °C for 18 h, listed as C00015) was 8 µg/mL, the MIC (B. subtilis 168 strain; [3]) was “+” and the “expression of iseA” value (iseA (formerly yoeB)) was “significantly increased; also recorded: significantly induced iseA gene expression”. The RT-qPCR (iseA (formerly yoeB)) was “+”.
For `CC(C)(C)OC(=O)Nc1cccc(NC2=C(Cl)C(=O)c3c(O)ccc(O)c3C2=O)c1` [2l, tert-butyl (3-((3-chloro-5,8-dihydroxy-1,4-dioxo-1,4-dihydronaphthalen-2-yl)amino)phenyl)carbamate], the pIC50 (EvgS (559–1197) D1009A) was 4.30, the pIC50 (WalK) was 4.89 and the “inhibitory activity against WalK” value (WalK) was “comparable to waldiomycin”. The WalK (WalK) was “+”, the pIC50 (CpxA) was 4.49 and the pIC50 (PhoQ) was 3.88. For the same molecule, the “inhibition of EvgS, EnvZ, PhoQ, and CpxA” value [1] was “inhibited all four of these HKs”, the HKs [1] was “+” and the MIC (B. subtilis 168 strain; [2]) was 8 µg/mL. The MIC (B. subtilis 168 strain; [3]) was “+”, the “expression of iseA” value (iseA (formerly yoeB)) was “significantly increased; also recorded: significantly induced iseA gene expression” and the RT-qPCR (iseA (formerly yoeB)) was “+”.
With `Cc1noc2c1C(=O)c1c(O)ccc(O)c1C2=O` [3b, 5,8-dihydroxy-3-methylnaphtho[2,3-d]isoxazole-4,9-dione] the pIC50 (EvgS (559–1197) D1009A) was 3.96, the pIC50 (WalK) was 3.73 and the WalK (WalK) was “+”. For the same molecule, the pIC50 (CpxA) was 3.98, the pIC50 (PhoQ) was 4.02 and the “inhibition of EvgS, EnvZ, PhoQ, and CpxA” value [1] was “inhibited all four of these HKs”. For the same molecule, the HKs [1] was “+”, the MIC (B. subtilis 168 strain; [2]) was 0.5 µg/mL and the “antibacterial (antimicrobial) activity against B. subtilis” value (B. subtilis 168 strain; in words) was “equal to waldiomycin or even stronger”. The MIC (B. subtilis 168 strain; [3]) was “+”, the “expression of iseA” value (iseA (formerly yoeB)) was “significantly increased; also recorded: significantly induced iseA gene expression” and the RT-qPCR (iseA (formerly yoeB)) was “+”.
